Experiment [1] deals with FLT3-D835Y (Homo sapiens, UniProt P36888, D835Y). The experiment in a line: ADP Glo kinase assay. The format is biochemical. To be noted: calculated from IC50 using the Cheng-Prusoff equation. On the procedure:
(§1) Kinase assay. The ADP Glo^TM kinase assay (Promega, Madison, WI, USA) was used to assess the inhibition by CDDD11-8 of CDKs 1, 2, 4, 6, 7, and 9, as well as the mutant isoforms of FLT3. The assays were performed in accord with the manufacturer’s protocol (Promega) as described previously. Briefly, serial three-fold dilutions of CDDD11-8 were prepared in 100% DMSO from a 2 mM stock solution, followed by 1:40 dilution into Milli-Q water. Subsequently, 1 µL of each sample was incubated with 4 µL of kinase mixture containing a particular CDK enzyme and its substrate, standard kinase buffer [3 mM MgCl2, 50 mM HEPES-NaOH pH 7.5, 3 mM MnCl2, 3 µM Na-orthovanadate, 1 mM dithiothreitol (DTT)], kinase dilution buffer (containing 0.25 mg/mL PEG20,000, 50 mM HEPES-NaOH pH 7.5, 1 mM DTT), and ATP at 37 °C for 30 to 40 min. The final reaction mixture contained 0.5% DMSO in all samples, and the applied kinase concentrations were 1, 1, 10, 40, 20, and 50 nM for CDK1, 2, 4, 6, 7, and 9, respectively. The reaction was stopped by adding ADP-Glo reagent and the mixture was incubated further in the dark at room temperature for 40 min. As a final step, kinase detection reagent was added to each mixture and incubated at room temperature for 30 to 60 min. Luminescence was read using an EnVision® multilabel plate reader (PerkinElmer, Beaconsfield, UK), and half-maximum inhibitory concentrations (IC50) were calculated using a non-linear regression model with a variable slope, plotting log (inhibitor concentration) vs. response using the following formula: Ar%=Bottom+Top−Bottom/1+Inhibitor Concentration/IC50^HillSlope where the relative activity Ar (%) is the signal relative to the controls, IC50 is the half maximum concentration, Hillslope is the steepness of the dose-response curve, Top and Bottom are plateaus reflecting the maximum and minimum in responses on the Y-axis (GraphPad Prism version 7, San Diego, CA, USA). Ki values were calculated from the IC50 using the Cheng−Prusoff equation [32]. Extensive specificity assessment was carried out by Reaction Biology Corporation (Malvern, PA, USA) with 369 kinases using 1 µM CDDD11-8 concentration in a Kinase Hotspot radiolabel assay (for experimental details, please see (Reaction Biology https://www.reactionbiology.com/). Subsequently, Ki values were determined for kinases with greater than 90% inhibition.

Experiment [2] concerns the target CDK6D3 (Homo sapiens, UniProt Q00534). The experiment in a line: ADP Glo kinase assay. In kind it is biochemical. To be noted: calculated from IC50 using the Cheng-Prusoff equation. On the procedure:
as §1

For experiment [3], the target named is T1, FLT3 (Homo sapiens, UniProt P36888).
T1 construct: purchased Reaction Biology Corporation (Kinase HotSpot)
In words: ADP Glo kinase assay. The conditions noted are these: calculated from IC50 using the Cheng-Prusoff equation. The format is biochemical. Here is the method: as §1

In experiment [4] the target is CDK1B (Homo sapiens, UniProt P06493). In words: ADP Glo kinase assay. The format is biochemical. The conditions noted are these: calculated from IC50 using the Cheng-Prusoff equation. On the procedure:
as §1

Experiment [5] deals with FLT3-ITD (Homo sapiens, UniProt P36888, ITD). In words: ADP Glo kinase assay. In kind it is biochemical. To be noted: calculated from IC50 using the Cheng-Prusoff equation. On the procedure:
as §1

In experiment [6] the target is CDK4D1 (Homo sapiens, UniProt P11802). The experiment in a line: ADP Glo kinase assay. In kind it is biochemical. The conditions noted are these: calculated from IC50 using the Cheng-Prusoff equation. On the procedure: as §1
Experiment [7] relates to MOLM-13 cells. In words: Western blotting of cellular signaling pathways. The format is cell-based. To be noted: MOLM-13, 24 h, concentration-dependent. Here is the method: Western blotting. Western blotting was performed as described previously. Briefly, cells were lysed after incubation with different concentrations of compounds or control (0.1% DMSO) at the indicated times, samples were denatured at 95 °C for 5 min, and proteins having different molecular weights within each sample were separated by electrophoresis (Bio-Rad, Hercules, CA, USA) on polyacrylamide gels (4–20%, Bio-Rad). Resolved proteins were electrophoretically transferred onto a PVDF membrane and blocked by incubating with 10% w/v non-fat powdered milk dissolved in 1 × Tris-buffered saline-tween 20 (TBST) for 1 h at room temperature prior to incubating overnight with primary antibodies at 4 °C with slight shaking. Chemiluminescence was detected with a ChemiDoc^TM gel imaging system after the membranes have been exposed to ECL substrates (GE Healthcare, PA, USA), and the Image Lab software (Bio-Rad) was used for image capture. The primary antibodies used were: β-Actin (Invitrogen, Cat MA515739, 1:5000), β-Tubulin (Cell Signaling Technology, Cat 2146, 1:1000), AKT (Cell Signaling Technology, Cat 9272, 1:1000), c-MYC (Cell Signaling Technology, Cat 5605, 1:1000), Caspase-3 (Cell Signaling Technology, Cat 9665, 1:1000), Cleaved PARP (Cell Signaling Technology, Cat 5625, 1:1000), ERK1/2 (p44/42 MAPK, Cell Signaling Technology, Cat 4695, 1:1000), GAPDH (Invitrogen, Cat PA1987, 1:1000), MCL-1 (Cell Signaling Technology, Cat 942965, 1:1000), PARP (Cell Signaling Technology, Cat 9532, 1:1000), Phospho-AKT (Ser473) (Cell Signaling Technology, Cat 9271, 1:1000), Phospho-ERK (Thr202/Tyr204) (Cell Signaling Technology, Cat 4370, 1:1000), Phospho-FLT3 (Tyr591) (Cell Signaling Technology, Cat 3461, 1:1000), Phospho-STAT5 (Tyr694) (Cell Signaling Technology, Cat 9359, 1:1000), RNAP II CTD (BioLegend (CA, USA), Cat 664906, 1:1000), RNAP II CTD Phospho-Ser2 (BioLegend, Cat 920204, 1:1000), RNAP II CTD Phospho-Ser5 (Abcam, Cat ab5408, 1:1000), STAT5 (Cell Signaling Technology, Cat 9363, 1:1000), and XIAP (Cell Signaling Technology, Cat 14334, 1:1000). Bands were quantified using ImageJ software (US National Institutes of Health, Bethesda, MD, USA).
For orientation: Immunoblotting shows a protein as a band on a membrane.

The target of experiment [8] is T2, TRKC (Homo sapiens, UniProt Q16288).
T2 construct: purchased Reaction Biology Corporation (contract assay)
T2 sequence (Q16288 32-839): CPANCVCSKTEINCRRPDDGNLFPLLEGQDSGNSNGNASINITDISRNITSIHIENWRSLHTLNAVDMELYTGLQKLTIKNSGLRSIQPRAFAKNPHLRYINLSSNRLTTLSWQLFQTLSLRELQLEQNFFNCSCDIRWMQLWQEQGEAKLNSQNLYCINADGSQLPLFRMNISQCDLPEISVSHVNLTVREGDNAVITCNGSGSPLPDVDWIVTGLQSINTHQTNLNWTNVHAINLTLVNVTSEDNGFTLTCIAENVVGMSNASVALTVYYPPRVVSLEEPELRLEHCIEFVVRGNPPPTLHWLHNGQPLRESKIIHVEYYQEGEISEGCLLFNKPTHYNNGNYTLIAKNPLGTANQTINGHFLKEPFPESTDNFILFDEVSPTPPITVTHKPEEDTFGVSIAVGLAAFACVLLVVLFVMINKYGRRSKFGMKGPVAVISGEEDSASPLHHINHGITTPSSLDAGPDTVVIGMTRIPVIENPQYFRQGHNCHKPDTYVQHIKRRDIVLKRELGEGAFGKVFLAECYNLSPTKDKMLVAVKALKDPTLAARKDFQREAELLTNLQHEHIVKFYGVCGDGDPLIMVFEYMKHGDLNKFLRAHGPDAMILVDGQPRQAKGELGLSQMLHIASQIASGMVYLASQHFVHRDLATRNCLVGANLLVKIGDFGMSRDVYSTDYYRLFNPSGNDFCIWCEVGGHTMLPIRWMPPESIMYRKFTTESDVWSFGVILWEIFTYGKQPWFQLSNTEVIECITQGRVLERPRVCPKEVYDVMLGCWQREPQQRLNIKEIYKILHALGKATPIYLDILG
In words: Ki determination for kinases with greater than 90% inhibition (Reaction Biology). In kind it is biochemical. To be noted: calculated from IC50 using the Cheng-Prusoff equation. On the procedure:
as §1

In experiment [9] the target is T3, MST1 (Homo sapiens, UniProt Q13043).
T3 construct: purchased Reaction Biology Corporation (contract assay)
T3 sequence (Q13043 whole entry): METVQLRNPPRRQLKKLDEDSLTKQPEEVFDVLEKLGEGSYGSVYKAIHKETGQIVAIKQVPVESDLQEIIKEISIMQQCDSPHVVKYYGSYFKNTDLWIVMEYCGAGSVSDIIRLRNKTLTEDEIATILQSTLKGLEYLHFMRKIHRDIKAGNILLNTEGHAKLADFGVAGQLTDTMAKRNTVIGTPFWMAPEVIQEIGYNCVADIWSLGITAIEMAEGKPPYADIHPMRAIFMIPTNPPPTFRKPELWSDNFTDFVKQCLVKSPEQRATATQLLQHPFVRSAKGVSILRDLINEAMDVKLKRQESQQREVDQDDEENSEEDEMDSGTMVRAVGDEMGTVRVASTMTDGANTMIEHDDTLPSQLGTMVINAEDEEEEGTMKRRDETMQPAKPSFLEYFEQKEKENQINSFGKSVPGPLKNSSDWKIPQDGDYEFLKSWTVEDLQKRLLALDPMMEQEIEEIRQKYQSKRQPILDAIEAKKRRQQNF
Described as above. The format is biochemical. The conditions noted are these: calculated from IC50 using the Cheng-Prusoff equation. On the procedure: as §1

The target in experiment [10] is T4, NUAK1 (Homo sapiens, UniProt O60285).
T4 construct: purchased Reaction Biology Corporation (contract assay)
The description is as above. In kind it is biochemical. The conditions noted are these: calculated from IC50 using the Cheng-Prusoff equation. Here is the method:
as §1

Experiment [11] has as its target T5, MINK (Homo sapiens, UniProt Q8N4C8).
T5 construct: purchased Reaction Biology Corporation (contract assay)
Described as above. In kind it is biochemical. The conditions noted are these: calculated from IC50 using the Cheng-Prusoff equation. On the procedure:
as §1

Experiment [12] has as its target T6, GLK (Homo sapiens, UniProt Q8IVH8).
T6 construct: purchased Reaction Biology Corporation (contract assay)
Described as above. In kind it is biochemical. The conditions noted are these: calculated from IC50 using the Cheng-Prusoff equation. On the procedure: as §1

Experiment [13] addresses T7, TNIK (Homo sapiens, UniProt Q9UKE5).
T7 construct: purchased Reaction Biology Corporation (Kinase HotSpot)
The description is as above. The format is biochemical. The conditions noted are these: calculated from IC50 using the Cheng-Prusoff equation. Here is the method: as §1

T5 sequence (Q8N4C8 whole entry): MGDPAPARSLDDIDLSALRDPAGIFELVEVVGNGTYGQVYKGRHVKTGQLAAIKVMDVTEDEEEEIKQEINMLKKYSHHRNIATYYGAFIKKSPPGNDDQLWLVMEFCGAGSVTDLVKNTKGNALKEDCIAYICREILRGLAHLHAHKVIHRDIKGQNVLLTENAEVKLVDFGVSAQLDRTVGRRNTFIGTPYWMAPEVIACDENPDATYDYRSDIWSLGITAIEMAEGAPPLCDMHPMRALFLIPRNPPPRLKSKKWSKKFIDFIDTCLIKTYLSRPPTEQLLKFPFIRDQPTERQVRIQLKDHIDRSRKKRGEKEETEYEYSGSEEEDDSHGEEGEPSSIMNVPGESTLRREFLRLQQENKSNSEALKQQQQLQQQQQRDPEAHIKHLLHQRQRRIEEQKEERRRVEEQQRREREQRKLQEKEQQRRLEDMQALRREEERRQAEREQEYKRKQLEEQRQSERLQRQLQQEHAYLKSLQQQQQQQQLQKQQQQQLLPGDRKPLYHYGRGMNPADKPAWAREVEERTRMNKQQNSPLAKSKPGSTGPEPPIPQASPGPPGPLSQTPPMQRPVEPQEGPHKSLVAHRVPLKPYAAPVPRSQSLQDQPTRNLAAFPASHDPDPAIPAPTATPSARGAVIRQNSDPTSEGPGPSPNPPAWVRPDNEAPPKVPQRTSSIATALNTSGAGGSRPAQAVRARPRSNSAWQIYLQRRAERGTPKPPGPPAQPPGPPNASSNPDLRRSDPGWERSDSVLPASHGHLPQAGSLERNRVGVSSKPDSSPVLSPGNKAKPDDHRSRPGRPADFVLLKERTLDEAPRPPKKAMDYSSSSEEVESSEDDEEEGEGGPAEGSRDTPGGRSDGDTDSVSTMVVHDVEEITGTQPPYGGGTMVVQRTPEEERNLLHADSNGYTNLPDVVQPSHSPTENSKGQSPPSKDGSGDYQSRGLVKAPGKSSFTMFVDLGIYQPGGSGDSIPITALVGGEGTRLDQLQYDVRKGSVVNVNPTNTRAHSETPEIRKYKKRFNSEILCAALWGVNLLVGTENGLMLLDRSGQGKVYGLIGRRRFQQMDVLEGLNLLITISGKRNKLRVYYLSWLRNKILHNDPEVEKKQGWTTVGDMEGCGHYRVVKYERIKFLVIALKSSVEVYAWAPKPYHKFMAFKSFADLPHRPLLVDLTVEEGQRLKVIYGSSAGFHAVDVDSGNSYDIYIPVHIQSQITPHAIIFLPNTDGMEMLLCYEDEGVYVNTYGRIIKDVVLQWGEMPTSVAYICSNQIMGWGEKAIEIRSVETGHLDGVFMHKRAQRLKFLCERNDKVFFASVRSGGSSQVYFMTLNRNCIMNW
CDK1B, sequence (P06493 whole entry): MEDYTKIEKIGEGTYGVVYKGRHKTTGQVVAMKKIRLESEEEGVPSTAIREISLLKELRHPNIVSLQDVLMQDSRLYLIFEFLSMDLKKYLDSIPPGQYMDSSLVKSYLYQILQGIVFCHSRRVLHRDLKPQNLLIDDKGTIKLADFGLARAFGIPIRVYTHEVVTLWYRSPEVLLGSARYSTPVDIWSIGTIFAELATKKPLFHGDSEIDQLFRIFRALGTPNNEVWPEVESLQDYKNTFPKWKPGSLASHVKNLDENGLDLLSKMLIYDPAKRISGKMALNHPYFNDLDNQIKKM
CDK1B, sequence (P14635 whole entry partner): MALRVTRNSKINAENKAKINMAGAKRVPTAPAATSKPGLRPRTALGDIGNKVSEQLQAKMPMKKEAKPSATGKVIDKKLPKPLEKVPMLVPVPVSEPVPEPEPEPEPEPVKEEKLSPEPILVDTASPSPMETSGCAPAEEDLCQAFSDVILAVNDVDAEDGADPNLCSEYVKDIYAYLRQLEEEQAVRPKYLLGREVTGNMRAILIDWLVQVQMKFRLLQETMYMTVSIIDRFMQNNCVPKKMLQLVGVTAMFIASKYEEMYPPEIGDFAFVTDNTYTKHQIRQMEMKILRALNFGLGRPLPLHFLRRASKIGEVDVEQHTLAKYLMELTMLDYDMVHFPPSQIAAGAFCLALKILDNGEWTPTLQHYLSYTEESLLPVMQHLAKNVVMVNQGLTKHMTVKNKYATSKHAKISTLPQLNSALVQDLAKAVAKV
CDK6D3, sequence (Q00534 whole entry): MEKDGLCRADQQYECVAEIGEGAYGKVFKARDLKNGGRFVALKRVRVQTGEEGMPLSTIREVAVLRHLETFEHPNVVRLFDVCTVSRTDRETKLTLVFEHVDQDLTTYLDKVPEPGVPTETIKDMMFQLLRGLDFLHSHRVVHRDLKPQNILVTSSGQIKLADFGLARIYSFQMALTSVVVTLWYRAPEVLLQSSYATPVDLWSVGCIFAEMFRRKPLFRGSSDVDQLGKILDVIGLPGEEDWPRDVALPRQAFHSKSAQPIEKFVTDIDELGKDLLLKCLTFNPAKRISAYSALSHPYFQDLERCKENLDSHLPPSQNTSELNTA
CDK6D3, sequence (P30281 whole entry partner): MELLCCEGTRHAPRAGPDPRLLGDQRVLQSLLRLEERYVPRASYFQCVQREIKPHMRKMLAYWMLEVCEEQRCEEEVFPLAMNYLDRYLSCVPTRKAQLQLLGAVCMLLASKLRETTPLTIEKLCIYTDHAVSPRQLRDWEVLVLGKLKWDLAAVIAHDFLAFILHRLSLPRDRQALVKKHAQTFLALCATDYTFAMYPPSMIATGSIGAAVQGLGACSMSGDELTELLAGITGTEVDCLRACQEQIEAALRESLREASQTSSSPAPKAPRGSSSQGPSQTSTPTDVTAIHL
T6 sequence (Q8IVH8 whole entry): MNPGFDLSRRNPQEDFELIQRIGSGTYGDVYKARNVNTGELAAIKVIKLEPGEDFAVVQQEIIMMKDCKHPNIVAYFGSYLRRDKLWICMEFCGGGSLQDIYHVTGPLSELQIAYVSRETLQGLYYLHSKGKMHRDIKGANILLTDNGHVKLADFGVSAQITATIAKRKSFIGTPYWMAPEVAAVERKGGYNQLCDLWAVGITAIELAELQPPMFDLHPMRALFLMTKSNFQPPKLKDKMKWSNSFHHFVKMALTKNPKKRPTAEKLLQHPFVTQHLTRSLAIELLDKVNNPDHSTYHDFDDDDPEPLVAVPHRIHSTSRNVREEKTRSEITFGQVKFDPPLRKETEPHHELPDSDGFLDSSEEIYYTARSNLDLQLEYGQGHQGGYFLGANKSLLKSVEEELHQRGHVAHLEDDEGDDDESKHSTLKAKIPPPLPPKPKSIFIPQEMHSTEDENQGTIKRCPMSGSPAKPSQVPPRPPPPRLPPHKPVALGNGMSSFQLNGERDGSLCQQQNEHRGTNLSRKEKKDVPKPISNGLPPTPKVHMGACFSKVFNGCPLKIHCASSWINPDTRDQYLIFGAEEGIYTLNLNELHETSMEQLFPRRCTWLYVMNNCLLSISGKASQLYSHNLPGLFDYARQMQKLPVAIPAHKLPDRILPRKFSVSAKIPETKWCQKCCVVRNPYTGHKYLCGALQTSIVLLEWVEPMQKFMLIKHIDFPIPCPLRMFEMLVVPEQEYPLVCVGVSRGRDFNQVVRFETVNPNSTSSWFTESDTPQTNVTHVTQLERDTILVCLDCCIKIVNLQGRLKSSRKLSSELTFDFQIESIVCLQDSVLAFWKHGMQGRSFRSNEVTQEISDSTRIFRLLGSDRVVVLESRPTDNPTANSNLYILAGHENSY

As a reminder, the Ki is the dissociation constant of the complex between target and ligand, obtained from inhibition or displacement. For `Cc1cnc(N[C@H]2CC[C@H](N)CC2)nc1-c1cnc2ccc(-c3ccccc3)cn12` [CDDD11-8], the Ki in [1] is 7 nM; in [2], greater than 1000 nM; in experiment [3], 46 nM; in experiment [4], greater than 1000 nM; in [5] it was 13 nM; in experiment [6] it was greater than 1000 nM. Further, the Ki in experiment [8] was 10 nM; in [9], 9 nM; in experiment [10] it was 12 nM; in experiment [11] it was 14 nM; in experiment [12], 28 nM; in experiment [13], 3 nM. Further, in experiment [7], the “phosphorylation of RNAP II CTD at Ser2 and Ser5” value is reported as “suppressed”.

The values above are taken from article PMC8909834, “An Orally Bioavailable and Highly Efficacious Inhibitor of CDK9/FLT3 for the Treatment of Acute Myeloid Leukemia” (Cancers, 2022).
